Results on one molecule are retold here after patent US12150922B1, “Methods of inhibiting cyclooxygenase (COX) using tolterodine” (priority 2023, dated 2024).

For one assay, the target named is COX-1 (UniProt P05979). It counts as biochemical. As to conditions: conversion of arachidonic acid to prostaglandin; 10 min preincubation at 37° C.; three separate experiments. An excerpt:
(§1) The Schrodinger Maestro molecular modeling suite (Schrodinger LLC, New York, USA) was utilized for all stages of virtual screening modeling. QikProp software tools offer a fast, accurate, and user-friendly approach for predicting molecular characteristics. This software evaluates a given molecule's properties and compares them with those of substances present in 95% of commonly prescribed drugs. A series of graded filters is employed to identify potential interactions within the active site of the receptor and the ligand. This process involves constructing a grid with varying field sets that accurately score the ligand poses while simultaneously depicting the structure and attributes of the receptor. COX-1 and COX-2 inhibitor screening assay kits were obtained from Cayman Chemical (Ann Arbor, MI, USA).
(§2) The inhibitory effects of tolterodine on COX-1 and COX-2 were determined using COX inhibitor screening test kits, testing each compound's capacity to inhibit the conversion of arachidonic acid to prostaglandin. In test tubes, 25 mM Tris-HCl, pH 8.0, containing 5 mM EDTA, phenol, and 1 mM hematin was added. Tolterodine was dissolved in DMSO and added in concentrations ranging from […]. […]
(§3) Three separate experiments were used to calculate the IC50 values. The selectivity index was calculated as follows: Selectivity Index (SI)=IC50 COX-1/IC50 COX-2

Another assay has as its target T1, COX-2 (Homo sapiens, UniProt P35354).
T1 construct: purchased Cayman Chemical (Ann Arbor, MI, USA)
Kind of assay: biochemical.
Source text: as §1, §2, §3

Values joined by “and” are separate entries in the source; they are usually repeats but may differ in a detail not shown here. Equal entries are not always repeated.

T1 sequence (P35354 18-604): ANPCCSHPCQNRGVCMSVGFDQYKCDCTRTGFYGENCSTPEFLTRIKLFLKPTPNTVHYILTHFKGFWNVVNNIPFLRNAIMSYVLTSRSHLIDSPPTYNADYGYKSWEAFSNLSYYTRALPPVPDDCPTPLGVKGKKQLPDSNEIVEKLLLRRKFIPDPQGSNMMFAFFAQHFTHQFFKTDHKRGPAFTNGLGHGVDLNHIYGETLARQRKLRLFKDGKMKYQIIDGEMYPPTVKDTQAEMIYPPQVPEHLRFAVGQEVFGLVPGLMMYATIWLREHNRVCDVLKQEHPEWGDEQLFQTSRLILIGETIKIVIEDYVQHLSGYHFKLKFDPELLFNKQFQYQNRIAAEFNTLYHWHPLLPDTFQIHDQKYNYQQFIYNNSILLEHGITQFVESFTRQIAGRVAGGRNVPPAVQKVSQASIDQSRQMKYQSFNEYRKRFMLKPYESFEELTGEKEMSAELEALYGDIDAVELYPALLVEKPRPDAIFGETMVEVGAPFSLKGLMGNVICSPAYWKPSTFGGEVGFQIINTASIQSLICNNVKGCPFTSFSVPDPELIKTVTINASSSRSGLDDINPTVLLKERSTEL
Chain of COX-1 (P05979 whole entry): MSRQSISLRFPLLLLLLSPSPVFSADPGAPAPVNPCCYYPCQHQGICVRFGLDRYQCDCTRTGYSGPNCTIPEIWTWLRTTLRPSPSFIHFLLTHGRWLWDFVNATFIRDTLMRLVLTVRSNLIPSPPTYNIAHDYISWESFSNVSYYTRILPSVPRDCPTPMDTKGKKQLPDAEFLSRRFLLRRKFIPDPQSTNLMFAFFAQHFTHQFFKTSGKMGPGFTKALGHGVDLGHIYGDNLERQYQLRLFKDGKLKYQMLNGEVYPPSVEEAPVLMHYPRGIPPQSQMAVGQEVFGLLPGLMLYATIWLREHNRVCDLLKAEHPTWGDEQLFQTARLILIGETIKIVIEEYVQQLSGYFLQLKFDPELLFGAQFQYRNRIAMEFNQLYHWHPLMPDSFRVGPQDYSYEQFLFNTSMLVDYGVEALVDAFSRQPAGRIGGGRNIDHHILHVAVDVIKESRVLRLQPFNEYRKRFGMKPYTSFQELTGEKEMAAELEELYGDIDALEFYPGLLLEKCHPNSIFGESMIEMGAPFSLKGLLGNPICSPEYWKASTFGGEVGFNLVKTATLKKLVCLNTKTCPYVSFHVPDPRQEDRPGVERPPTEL

In general, IC50 refers to the concentration at which inhibition is half-maximal. A higher IC50 goes with weaker potency in that assay. On to `Cc1ccc(O)c([C@H](CCN(C(C)C)C(C)C)c2ccccc2)c1` [Tolterodine], for which the IC50 against COX-1 is ~4.53 µM and 4.53 µM; against COX-2 (conversion of arachidonic acid to prostaglandin, 10 min preincubation at 37° C., three separate experiments) it was ~0.32 µM and 0.32 µM. At COX-2, the “SI (Selectivity Index = IC50 COX-1/IC50 COX-2)” value is recorded as 14.3.
